Experimental data from ChEMBL document CHEMBL4190178 (Medchemcomm, 2016).
One block for each compound: values may come before it. Calls of active or inactive are those of the source. No cut-off for these calls is given here.

Legend:
[1] = test system: LNCaP; test: Cytotoxicity against human LNCAP cells assessed as reduction in cell viability after 24 hrs by MTT assay; assay type: functional, cell-based
[2] = biological target: T1, Androgen receptor (Homo sapiens) (UniProt P10275); test: Antagonist activity at androgen receptor in human LNCAP cells assessed as decrease in testosterone-induced PSA expression levels at 10 uM after 24 hrs by Western blot analysis; assay type: cell-based
T1 sequence (whole entry): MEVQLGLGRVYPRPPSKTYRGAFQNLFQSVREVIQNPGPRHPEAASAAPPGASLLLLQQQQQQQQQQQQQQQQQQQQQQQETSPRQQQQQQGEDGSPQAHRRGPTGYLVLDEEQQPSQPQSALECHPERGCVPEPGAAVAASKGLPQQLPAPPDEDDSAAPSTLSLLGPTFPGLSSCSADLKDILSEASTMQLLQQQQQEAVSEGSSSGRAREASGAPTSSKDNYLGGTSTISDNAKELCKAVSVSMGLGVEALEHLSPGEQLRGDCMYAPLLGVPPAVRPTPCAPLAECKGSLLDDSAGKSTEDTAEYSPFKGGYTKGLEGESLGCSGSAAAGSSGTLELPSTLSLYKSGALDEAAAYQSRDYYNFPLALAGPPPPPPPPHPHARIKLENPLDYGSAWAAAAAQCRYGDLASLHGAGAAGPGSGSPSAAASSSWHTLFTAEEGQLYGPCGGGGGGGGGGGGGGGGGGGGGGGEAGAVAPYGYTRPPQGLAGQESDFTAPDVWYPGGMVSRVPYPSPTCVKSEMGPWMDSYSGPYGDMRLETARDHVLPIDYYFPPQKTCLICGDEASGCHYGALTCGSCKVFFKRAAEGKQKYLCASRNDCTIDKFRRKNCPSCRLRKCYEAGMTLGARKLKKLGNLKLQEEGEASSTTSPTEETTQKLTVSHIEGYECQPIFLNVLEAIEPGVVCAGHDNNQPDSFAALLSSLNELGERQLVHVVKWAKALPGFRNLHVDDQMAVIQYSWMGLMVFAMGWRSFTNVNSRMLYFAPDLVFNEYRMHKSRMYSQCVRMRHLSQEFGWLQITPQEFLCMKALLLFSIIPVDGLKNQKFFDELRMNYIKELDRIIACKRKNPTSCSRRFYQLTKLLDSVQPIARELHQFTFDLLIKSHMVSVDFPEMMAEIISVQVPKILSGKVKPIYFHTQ

[3] = biological target: T1, Androgen receptor (Homo sapiens); test: Antagonist activity at human androgen receptor expressed in African green monkey COS7 cells at 7.5 uM after 24 hrs by ARE-dual luciferase reporter gene assay; assay type: cell-based
[4] = test system: PC-3; test: Antiproliferative activity against human PC3 cells assessed as decrease in cell viability after 24 hrs by MTT assay; assay type: functional, cell-based; settings: PC-3, 24 h
[5] = test system: DU-145; test: Antiproliferative activity against human DU145 cells assessed as decrease in cell viability after 24 hrs by MTT assay; assay type: functional, cell-based; settings: DU-145, 24 h
[6] = test system: LNCaP; test: Antiproliferative activity against human LNCAP cells assessed as decrease in cell viability after 24 hrs by MTT assay; assay type: functional, cell-based
[7] = biological target: T2, Alpha-1A adrenergic receptor (Homo sapiens) (UniProt P35348); test: Antagonist activity at human alpha1A adrenergic receptor expressed in Chem1 cells assessed as decrease in epinephrine-induced calcium mobilization by measuring relative fluorescence unit at 10 uM by fluoforte dye based fluorescence assay relative to epinephrine; assay type: functional, cell-based
T2 sequence (whole entry): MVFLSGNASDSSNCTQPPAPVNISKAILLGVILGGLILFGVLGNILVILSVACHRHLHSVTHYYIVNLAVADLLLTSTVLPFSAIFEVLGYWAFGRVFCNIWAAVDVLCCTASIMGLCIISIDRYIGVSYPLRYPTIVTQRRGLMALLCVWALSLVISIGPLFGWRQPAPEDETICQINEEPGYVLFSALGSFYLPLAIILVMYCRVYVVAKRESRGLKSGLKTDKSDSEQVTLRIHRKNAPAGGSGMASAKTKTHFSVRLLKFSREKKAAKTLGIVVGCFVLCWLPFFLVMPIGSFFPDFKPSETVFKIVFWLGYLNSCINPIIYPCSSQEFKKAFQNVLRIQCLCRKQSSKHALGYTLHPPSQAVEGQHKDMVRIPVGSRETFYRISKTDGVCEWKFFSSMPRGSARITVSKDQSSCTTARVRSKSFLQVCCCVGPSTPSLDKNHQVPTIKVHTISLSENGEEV

[8] = test system: Rattus norvegicus; test: Anti-androgenic activity in benign prostatic hyperplasia Sprague-Dawley rat model assessed as reduction in citral-induced prostate weight at 10 mg/kg, po qd co-administered with citral for 21 days starting post 8 days of citral alone treatment; assay type: functional; design: scale not given: the % may be the effect or the level left
[9] = test system: Rattus norvegicus; test: Toxicity in benign prostatic hyperplasia Sprague-Dawley rat model assessed as effect on seminal vesicle weight at 10 mg/kg, po qd co-administered with citral for 21 days starting post 8 days of citral alone treatment; assay type: organism-based; settings: in vivo
[10] = test system: Rattus norvegicus; test: Toxicity in benign prostatic hyperplasia Sprague-Dawley rat model assessed as effect on testis weight at 10 mg/kg, po qd co-administered with citral for 21 days starting post 8 days of citral alone treatment; assay type: organism-based; settings: in vivo
[11] = test system: Rattus norvegicus; test: Toxicity in benign prostatic hyperplasia Sprague-Dawley rat model assessed as effect on epididymis weight at 10 mg/kg, po qd co-administered with citral for 21 days starting post 8 days of citral alone treatment; assay type: organism-based; settings: in vivo
[12] = test system: Rattus norvegicus; test: (§1) Anti-androgenic activity in citral-induced benign prostatic hyperplasia Sprague-Dawley rat model assessed as reduction in stromal component at 10 mg/kg, po qd co-administered with citral for 21 days starting post 8 days of citral alone treatment by hematoxyline and eosin staining based light microscopic analysis; assay type: functional, organism-based
[13] = test system: Rattus norvegicus; test: as §1, with “tissue differentiation into stroma” for “stromal component”; assay type: functional, organism-based
[14] = test system: Rattus norvegicus; test: as §1, with “tissue differentiation into acinar compartments” for “stromal component”; assay type: functional, organism-based
[15] = Cmax in Sprague-Dawley rat serum at 10 mg/kg, po administered as single dose by LC-MS/MS analysis; assay type: ADME, organism-based; design: dose 10 mg/kg, route oral
[16] = Tmax in Sprague-Dawley rat serum at 10 mg/kg, po administered as single dose by LC-MS/MS analysis; assay type: ADME, organism-based
[17] = AUClast in Sprague-Dawley rat serum at 10 mg/kg, po administered as single dose by LC-MS/MS analysis; assay type: ADME, organism-based; design: dose 10 mg/kg, route oral, time 0 - last
[18] = Apparent clearance in Sprague-Dawley rat serum at 10 mg/kg, po administered as single dose by LC-MS/MS analysis; assay type: ADME, organism-based
[19] = Apparent volume of distribution in Sprague-Dawley rat serum at 10 mg/kg, po administered as single dose by LC-MS/MS analysis; assay type: ADME, organism-based
[20] = Cmax in Sprague-Dawley rat prostate at 10 mg/kg, po administered as single dose by LC-MS/MS analysis; assay type: ADME, organism-based, Prostate gland; design: dose 10 mg/kg, route oral
[21] = Tmax in Sprague-Dawley rat prostate at 10 mg/kg, po administered as single dose by LC-MS/MS analysis; assay type: ADME, organism-based, Prostate gland
[22] = AUClast in Sprague-Dawley rat prostate at 10 mg/kg, po administered as single dose by LC-MS/MS analysis; assay type: ADME, organism-based, Prostate gland; settings: in vivo
[23] = Apparent clearance in Sprague-Dawley rat prostate at 10 mg/kg, po administered as single dose by LC-MS/MS analysis; assay type: ADME, organism-based, Prostate gland; settings: in vivo
[24] = Ratio of AUClast in Sprague-Dawley rat prostate to serum at 10 mg/kg, po administered as single dose by LC-MS/MS analysis; assay type: ADME, organism-based; settings: read-out: Ratio AUC
[25] = Apparent volume of distribution in Sprague-Dawley rat prostate at 10 mg/kg, po administered as single dose by LC-MS/MS analysis; assay type: ADME, organism-based, Prostate gland; settings: in vivo
[26] = Cmax in Sprague-Dawley rat hypothalamus at 10 mg/kg, po administered as single dose by LC-MS/MS analysis; assay type: ADME, organism-based; design: dose 10 mg/kg, route oral
[27] = Tmax in Sprague-Dawley rat hypothalamus at 10 mg/kg, po administered as single dose by LC-MS/MS analysis; assay type: ADME, organism-based
[28] = AUClast in Sprague-Dawley rat hypothalamus at 10 mg/kg, po administered as single dose by LC-MS/MS analysis; assay type: ADME, organism-based; settings: in vivo
[29] = Ratio of AUClast in Sprague-Dawley rat hypothalamus to serum at 10 mg/kg, po administered as single dose by LC-MS/MS analysis; assay type: ADME, organism-based; settings: read-out: Ratio AUC
[30] = Apparent clearance in Sprague-Dawley rat hypothalamus at 10 mg/kg, po administered as single dose by LC-MS/MS analysis; assay type: ADME, organism-based; settings: in vivo
[31] = Apparent volume of distribution in Sprague-Dawley rat hypothalamus at 10 mg/kg, po administered as single dose by LC-MS/MS analysis; assay type: ADME, organism-based; settings: in vivo

Compound: O=C(N1CCN(c2ccc([N+](=O)[O-])cc2)CC1)N1CCN(c2ccc(C(F)(F)F)cc2[N+](=O)[O-])CC1
EC50 [1]: > 80 µM

Compound: O=C(N1CCN(c2ccc([N+](=O)[O-])cc2)CC1)N1CCN(c2ccc([N+](=O)[O-])cc2)CC1
EC50 [1]: 72.3 µM

Compound: O=C(CN1CCN(c2ncccn2)CC1)N1CCN(c2ccc([N+](=O)[O-])cc2)CC1
EC50 [1]: 51.7 µM

Compound: COc1ccccc1N1CCN(CC(=O)N2CCN(c3ncccn3)CC2)CC1
EC50 [1]: 47.1 µM

Compound: O=C(CN1CCN(c2ccccn2)CC1)N1CCN(c2ncccn2)CC1
EC50 [1]: 50 µM

Compound: O=C(CN1CCN(c2ccc(C(F)(F)F)cc2[N+](=O)[O-])CC1)N1CCN(c2ccc(C(F)(F)F)cc2[N+](=O)[O-])CC1
EC50 [1]: 48.2 µM

Compound: O=C(N1CCN(c2ccccn2)CC1)N1CCN(c2ccccn2)CC1
EC50 [1]: > 80 µM

Activity [2]: Active | Activity [3]: Active | EC50 [4]: 65 µM | EC50 [5]: > 70.6 µM | EC50 [6]: 9.8 µM | fold change (FC) [7]: 1.6
Compound: O=C(CCl)N1CCN(c2ccc([N+](=O)[O-])cc2)CC1
EC50 [1]: 9.8 µM | Activity [8]: 31.6 - 32% | Activity [9]: Non-Toxic | Activity [10]: Non-Toxic | Activity [11]: Non-Toxic | Activity [12]: Active | Activity [13]: Active | Activity [14]: Active

Compound: O=C(CN1CCN(c2ccc([N+](=O)[O-])cc2C(F)(F)F)CC1)N1CCN(c2ccc([N+](=O)[O-])cc2C(F)(F)F)CC1
EC50 [1]: 46.6 µM

Activity [2]: Active | Activity [3]: Active | EC50 [4]: > 80 µM | EC50 [5]: > 80 µM | EC50 [6]: 11.2 µM | fold change (FC) [7]: 1.6 | Cmax [15]: 1100 ng/mL | Tmax [16]: 10 h | AUC(0-t) [17]: 24100 ng·h/mL | CL/F [18]: 6.67 mL/min/kg | Vd/F [19]: 4.2 L/kg | Cmax [20]: 2400 ng/g | Tmax [21]: 10 h | AUClast [22]: 37.3 µg·h/g | CL/F [23]: 268.2 g/h/kg | Kp [24]: 1.5 | Vd/F [25]: 2311.9 g/kg | Cmax [26]: 1200 ng/g | Tmax [27]: 10 h | AUClast [28]: 26.1 µg·h/g | Kp [29]: 1.1 | CL/F [30]: 383.2 g/h/kg | Vd/F [31]: 3313.7 g/kg
Compound: O=C(CN1CCN(c2ccc([N+](=O)[O-])cc2)CC1)N1CCN(c2ccc([N+](=O)[O-])cc2)CC1
EC50 [1]: 11.2 µM | Activity [8]: 46.2% | Activity [9]: Non-Toxic | Activity [10]: Non-Toxic | Activity [11]: Non-Toxic | Activity [12]: Active | Activity [13]: Active | Activity [14]: Active

Compound: COc1ccccc1N1CCN(C(=O)CN2CCN(c3ncccn3)CC2)CC1
EC50 [1]: 48.2 µM

Compound: O=C(N1CCN(c2ccccn2)CC1)N1CCN(c2ccc([N+](=O)[O-])cc2C(F)(F)F)CC1
EC50 [1]: > 80 µM

Compound: O=C(CCl)N1CCN(c2ccc([N+](=O)[O-])cc2C(F)(F)F)CC1
EC50 [1]: 53.3 µM

Compound: O=C(N1CCN(c2ccc([N+](=O)[O-])cc2)CC1)N1CCN(c2ccc([N+](=O)[O-])cc2C(F)(F)F)CC1
EC50 [1]: 76.1 µM
